The source made the active and inactive calls. The calls are words filed in the database; no cut-off is given here.
Assays:
Caspase-7 = molecular target: T1, Caspase-7 (Homo sapiens, UniProt P55210); test: Inhibition of human recombinant caspase-7 using Ac-DEVD-AMC as substrate after 10 mins by fluorescence assay
T1 sequence (P55210 whole entry): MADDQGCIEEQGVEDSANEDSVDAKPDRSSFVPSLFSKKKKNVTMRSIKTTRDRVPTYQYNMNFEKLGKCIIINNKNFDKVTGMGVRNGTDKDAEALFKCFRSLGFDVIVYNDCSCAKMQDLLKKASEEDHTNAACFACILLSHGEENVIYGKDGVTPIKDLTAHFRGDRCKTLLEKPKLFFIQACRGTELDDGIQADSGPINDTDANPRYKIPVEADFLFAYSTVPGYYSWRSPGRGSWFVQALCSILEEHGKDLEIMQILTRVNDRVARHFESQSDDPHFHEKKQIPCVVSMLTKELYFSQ

[1] = Solubility of the compound in water; type: physicochemical; settings: buffer
Jurkat = test: Antiapoptotic activity in human Jurkat T cells assessed as protection against camptothecin-induced apoptosis at 50 uM treated 2 hrs before camptothecin addition measured after 4 hrs using annexin V-FITC and 7-AAD staining by flow cytometry; type: functional, cell-based
Caspase-3 = molecular target: T2, Caspase-3 (Homo sapiens, UniProt P42574); test: Inhibition of human recombinant caspase-3 using […] as substrate after 10 mins by fluorescence assay
T2 sequence (P42574 whole entry): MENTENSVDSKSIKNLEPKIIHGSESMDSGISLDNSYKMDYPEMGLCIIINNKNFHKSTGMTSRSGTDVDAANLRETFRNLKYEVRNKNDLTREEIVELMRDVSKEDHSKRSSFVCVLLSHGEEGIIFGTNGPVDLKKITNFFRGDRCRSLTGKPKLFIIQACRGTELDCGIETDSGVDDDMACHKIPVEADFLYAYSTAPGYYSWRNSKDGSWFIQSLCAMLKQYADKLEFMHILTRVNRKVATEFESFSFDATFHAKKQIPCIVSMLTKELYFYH

Row | SMILES | IC50 (Caspase-7) [µM] | solubility [1] | Activity (Jurkat) | IC50 (Caspase-3) [µM]
1 | O=c1[nH]sc2ccccc12 | 137 | – | – | –
2 | O=C(Cn1sc2ccccc2c1=O)Nc1ccc(N2CCOCC2)cc1 | 100 | – | – | –
3 | O=C(NCc1ccc(N2CCOCC2)cc1)n1sc2ccccc2c1=O | 248 | soluble | Active | –
4 | O=C(Nc1ccc(N2CCOCC2)cc1)n1sc2ccccc2c1=O | 0.909 | Insoluble | – | 0.00115
